Where two headings read alike, the source gives them in different places.
How the values were obtained:
Assay type in all cases: in vivo
[1] = tested on: Lolium multiflorum; experiment: greenhouse post-emergence treatment, LOLMU; settings: Lolium multiflorum, LOLMU
Procedure, shortened: (§1)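 Pot trial in loamy sand with about 3.0% humus; plants sown in place or transplanted as seedlings a few days before treatment, kept at 10-25° C or 20-35° C by species, water as solvent. Damage scored 0 (none) to 100 (full destruction) over 2 to 4 weeks; combination expectation by Colby, E=X+Y−(X·Y/100).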

[2] = tested on: Helianthus annuus; experiment: greenhouse pre-emergence treatment, HELAN; settings: Helianthus annuus, 480 h, 20 DAT, HELAN
Procedure, shortened: (§2)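 Pre-emergence spray of compounds, alone or as combinations formulated as 10% emulsion concentrate in water, directly after sowing in loamy sand (~3.0% humus); pots hooded until rooting, kept at 10-25° C or 20-35° C per species for 2 to 4 weeks. Damage scored 0-100 (100 = no emergence/complete destruction); Colby expected value E=X+Y−(X·Y/100).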

[3] = tested on: Avena fatua; experiment: greenhouse post-emergence treatment, AVEFA; settings: Avena fatua; for pest or weed control at 125 g/ha: read-out: % activity
Procedure, shortened: as §1

[4] = tested on: Polygonum convolvulus; experiment: greenhouse pre-emergence treatment, POLCO; settings: Fallopia convolvulus, 480 h, 20 DAT, POLCO, Table X1, read-out: % activity, solo application
Procedure, shortened: as §2

[5] = tested on: Helianthus annuus; experiment: greenhouse post-emergence treatment, HELAN; settings: HELAN; for % activity: cinmethylin solo (EC 750 g/l), 21 DAT
Method: The culture containers used were plastic pots containing loamy sand with approximately 3.0% of humus as substrate. The seeds of the test plants were sown separately for each species.
For the post-emergence treatment, the test plants were grown to a plant height of from 3 to 15 cm, depending on the plant habit, and only then treated with the active compounds which had been suspended or emulsified in water. To this end, the test plants were either sown directly, and grown in the same containers, or they were first grown separately as seedlings and transplanted into the test containers a few days prior to treatment.
Depending on the species, the plants were kept at 10-25° C. and 20-35° C., respectively.
The test period extended over 2 to 4 weeks. During this time, the plants were tended and their response to the individual treatments was evaluated.
Evaluation was carried out using a scale from 0 to 100. 100 means no emergence of the plants, or complete destruction of at least the above-ground parts, and 0 means no damage or normal course of growth. A good herbicidal activity is given at values of at least 70, and very good herbicidal activity is given at values of at least 85.
The respective stated components A and B, and if appropriate, C were formulated as a 10% by weight strength emulsion concentrate and, with addition of the amount of solvent system, introduced into the spray liquor used for applying the active compound. In the examples, the solvent used was water.
In the examples below, using the method of S. R. Colby (1967) “Calculating synergistic and antagonistic responses of herbicide combinations”, Weeds 15, p. 22ff., the value E, which is expected if the activity of the individual active compounds is only additive, was calculated. E=X+Y−(X·Y/100) where X=effect in percent using herbicide A at an application rate a; • Y=effect in percent using herbicide B at application rate b; • E=expected effect (in %) of herbicide A+herbicide B at application rates a+b.

[6] = tested on: Bromus sterilis; experiment: greenhouse pre-emergence treatment, BROST; settings: Bromus sterilis, 480 h, 20 DAT, BROST
Procedure, shortened: as §2

[7] = tested on: Polygonum convolvulus; experiment: greenhouse post-emergence treatment, POLCO; settings: Fallopia convolvulus
Procedure, shortened: (§3)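 Post-emergence greenhouse spray on 3–15 cm plants, sown direct or transplanted a few days before treatment. Scored visually on a 0–100 scale after 2 to 4 weeks; expected additive effect computed by Colby: E=X+Y−(X·Y/100).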

[8] = tested on: Apera spica-venti; experiment: greenhouse pre-emergence treatment, APESV; settings: 20 DAT
Procedure, shortened: as §2

[9] = tested on: Stellaria media; experiment: greenhouse pre-emergence treatment, STEME; settings: chlorotoluron solo 250 gai/ha, 20 DAT
Procedure, shortened: as §2

[10] = tested on: Apera spica-venti; experiment: greenhouse post-emergence treatment, APESV; settings: APESV, 20 DAT
Procedure, shortened: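 Seeds sown per species in pots of loamy sand; seedlings either grown in place or transplanted days before treatment. Post-emergence spray of water-based liquor at 3–15 cm height. Injury rated 0–100 over 2 to 4 weeks.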

[11] = tested on: Papaver rhoeas; experiment: greenhouse pre-emergence treatment, PAPRH; settings: 20 DAT
Procedure, shortened: as §2

[12] = tested on: Alopecurus myosuroides; experiment: greenhouse pre-emergence treatment, ALOMY; settings: 20 DAT
Procedure, shortened: as §2

[13] = tested on: Galium aparine; experiment: greenhouse post-emergence treatment, GALAP; settings: Galium aparine, 480 h, GALAP, 20 DAT
Procedure, shortened: as §3

[14] = tested on: Echinocloa crus-galli; experiment: greenhouse pre-emergence treatment, ECHCG; settings: 20 DAT
Procedure, shortened: as §2

Cc1ccccc1CO[C@@H]1C[C@@]2(C(C)C)CC[C@]1(C)O2 (racemic) [cinmethylin]
pest or weed control at 62.5 g/ha ([1]; 504 h, 21 DAT, solo cinmethylin (EC 750 g/l) 62.5 gai/ha, read-out: % activity): 0%
pest or weed control at 125 g/ha ([1]; 504 h, 21 DAT, solo cinmethylin (EC 750 g/l) 125 gai/ha, read-out: % activity): 30%
inhibition at 125 g/ha ([2]; 125 gai/ha (EC 750 g/l), Table X1, read-out: % activity, solo application): 10%
pest or weed control at 125 g/ha ([3]; 504 h): 10%
inhibition at 31.25 g/ha ([4]; 31.25 gai/ha (EC 750 g/l)): 0%
inhibition at 62.5 g/ha ([4]; 62.5 gai/ha (EC 750 g/l)): 0%
inhibition at 125 g/ha ([4]; 125 gai/ha (EC 750 g/l)): 0%
inhibition at 250 g/ha ([4]; 250 gai/ha (EC 750 g/l)): 0%
% activity ([5]; 62.5 gai/ha): 30%
% activity ([5]; 500 gai/ha): 60%
inhibition at 62.5 g/ha ([6]; 62.5 gai/ha (EC 750 g/l), Table X1, read-out: % activity, solo application): 55%
inhibition at 250 g/ha ([6]; 250 gai/ha (EC 750 g/l), Table X1, read-out: % activity, solo application): 75%
pest or weed control at 62.5 g/ha ([7]; 504 h, read-out: % activity): 0%
pest or weed control at 125 g/ha ([7]; 504 h, read-out: % activity): 0%
pest or weed control at 250 g/ha ([7]; 504 h, read-out: % activity): 0%
pest or weed control at 500 g/ha ([7]; 504 h, read-out: % activity): 0%

Cc1ccc(NC(=O)N(C)C)cc1Cl [chlorotoluron]
pest or weed control at 500 g/ha ([1]; 480 h, chlorotoluron solo 500 gai/ha, 20 DAT): 80%
plant injury at 500 g/ha ([2]; chlorotoluron solo 500 gai/ha): 10%
% activity ([8]; chlorotoluron solo 62.5 gai/ha): 55%
% activity ([8]; chlorotoluron solo 250 gai/ha): 65%
% activity ([8]; chlorotoluron solo 500 gai/ha): 65%
pest or weed control at 125 g/ha ([3]; 480 h, AVEFA, chlorotoluron solo 125 gai/ha, 20 DAT): 0%
pest or weed control at 250 g/ha ([3]; 480 h, AVEFA, chlorotoluron solo 250 gai/ha, 20 DAT): 40%
pest or weed control at 500 g/ha ([3]; 480 h, AVEFA, chlorotoluron solo 500 gai/ha, 20 DAT): 70%
% activity [9]: 65%
% activity ([10]; chlorotoluron solo 62.5 gai/ha): 25%
% activity ([10]; chlorotoluron solo 125 gai/ha): 55%
% activity ([11]; chlorotoluron solo 62.5 gai/ha): 0%
% activity ([11]; chlorotoluron solo 500 gai/ha): 90%
pest or weed control at 62.5 g/ha ([6]; chlorotoluron solo 62.5 gai/ha): 0%
pest or weed control at 250 g/ha ([6]; chlorotoluron solo 250 gai/ha): 0%
pest or weed control at 500 g/ha ([6]; chlorotoluron solo 500 gai/ha): 0%
% activity ([12]; chlorotoluron solo 62.5 gai/ha): 0%
% activity ([12]; chlorotoluron solo 125 gai/ha): 0%
% activity ([12]; chlorotoluron solo 250 gai/ha): 0%
pest or weed control at 250 g/ha ([13]; chlorotoluron solo 250 gai/ha): 65%
pest or weed control at 500 g/ha ([13]; chlorotoluron solo 500 gai/ha): 70%
% activity ([14]; chlorotoluron solo 62.5 gai/ha): 0%
% activity ([14]; chlorotoluron solo 125 gai/ha): 0%
% activity ([14]; chlorotoluron solo 250 gai/ha): 35%
% activity ([14]; chlorotoluron solo 500 gai/ha): 25%

CCCCCCCCSC(=O)Oc1cc(Cl)nnc1-c1ccccc1 [pyridate]
pest or weed control at 112.5 g/ha ([1]; 480 h, solo pyridate (WP 45%) 112.5 gai/ha, 20 DAT): 0%
pest or weed control at 225 g/ha ([1]; 480 h, solo pyridate (WP 45%) 225 gai/ha, 20 DAT): 20%
inhibition at 112.5 g/ha ([1]; 480 h, pyridate solo 112.5 gai/ha, 20 DAT): 0%
inhibition at 225 g/ha ([1]; 480 h, pyridate solo 225 gai/ha, 20 DAT): 20%
pest or weed control at 112.5 g/ha ([3]; 480 h, AVEFA, solo pyridate (WP 45%) 112.5 gai/ha, 20 DAT): 0%
pest or weed control at 225 g/ha ([3]; 480 h, AVEFA, solo pyridate (WP 45%) 225 gai/ha, 20 DAT): 0%
pest or weed control at 450 g/ha ([3]; 480 h, AVEFA, solo pyridate (WP 45%) 450 gai/ha, 20 DAT): 10%
pest or weed control at 900 g/ha ([3]; 480 h, AVEFA, solo pyridate (WP 45%) 900 gai/ha, 20 DAT): 30%
inhibition at 112.5 g/ha ([3]; 480 h, pyridate solo 112.5 gai/ha, 20 DAT, AVEFA): 0%
inhibition at 225 g/ha ([3]; 480 h, pyridate solo 225 gai/ha, 20 DAT, AVEFA): 0%
inhibition at 450 g/ha ([3]; 480 h, pyridate solo 450 gai/ha, 20 DAT, AVEFA): 10%
% activity ([10]; solo pyridate (WP 45%) 450 gai/ha): 0%
inhibition at 112.5 g/ha ([10]; Apera spica-venti, 480 h, pyridate solo 112.5 gai/ha): 0%
inhibition at 225 g/ha ([10]; Apera spica-venti, 480 h, pyridate solo 225 gai/ha): 0%
inhibition at 450 g/ha ([10]; Apera spica-venti, 480 h, pyridate solo 450 gai/ha): 0%
inhibition at 900 g/ha ([10]; Apera spica-venti, 480 h, pyridate solo 900 gai/ha): 30%
inhibition at 225 g/ha ([5]; Helianthus annuus, 480 h, pyridate solo 225 gai/ha, 20 DAT): 60%
inhibition at 450 g/ha ([5]; Helianthus annuus, 480 h, pyridate solo 450 gai/ha, 20 DAT): 70%
inhibition at 112.5 g/ha ([7]; 480 h, pyridate solo 112.5 gai/ha, 20 DAT, POLCO): 40%
inhibition at 225 g/ha ([7]; 480 h, pyridate solo 225 gai/ha, 20 DAT, POLCO): 50%
pest or weed control at 112.5 g/ha ([13]; solo pyridate (WP 45%) 112.5 gai/ha): 40%
pest or weed control at 225 g/ha ([13]; solo pyridate (WP 45%) 225 gai/ha): 85%
inhibition at 112.5 g/ha ([13]; pyridate solo 112.5 gai/ha): 40%
inhibition at 225 g/ha ([13]; pyridate solo 225 gai/ha): 85%

Reference: patent US10966426B2, “Herbicidal compositions comprising phenylpyrimidines” (BASF SE, priority 2016, dated 2021)
